Experimental data taken from US4894389A, “Novel aminoalkyl-substituted heterocyclic sulfur compounds” (Merrell Dow Pharmaceuticals Inc., priority 1987, dated 1990).

How the values were obtained:
[1] = biological target: T1, dopamine-β-hydroxylase (DBH) (Bos taurus, UniProt P15101); assay: Time-dependent DBH inhibitory activity in vitro (tyramine substrate, oxygen uptake by polarographic electrode); type: biochemical
T1 sequence (P15101 1-610): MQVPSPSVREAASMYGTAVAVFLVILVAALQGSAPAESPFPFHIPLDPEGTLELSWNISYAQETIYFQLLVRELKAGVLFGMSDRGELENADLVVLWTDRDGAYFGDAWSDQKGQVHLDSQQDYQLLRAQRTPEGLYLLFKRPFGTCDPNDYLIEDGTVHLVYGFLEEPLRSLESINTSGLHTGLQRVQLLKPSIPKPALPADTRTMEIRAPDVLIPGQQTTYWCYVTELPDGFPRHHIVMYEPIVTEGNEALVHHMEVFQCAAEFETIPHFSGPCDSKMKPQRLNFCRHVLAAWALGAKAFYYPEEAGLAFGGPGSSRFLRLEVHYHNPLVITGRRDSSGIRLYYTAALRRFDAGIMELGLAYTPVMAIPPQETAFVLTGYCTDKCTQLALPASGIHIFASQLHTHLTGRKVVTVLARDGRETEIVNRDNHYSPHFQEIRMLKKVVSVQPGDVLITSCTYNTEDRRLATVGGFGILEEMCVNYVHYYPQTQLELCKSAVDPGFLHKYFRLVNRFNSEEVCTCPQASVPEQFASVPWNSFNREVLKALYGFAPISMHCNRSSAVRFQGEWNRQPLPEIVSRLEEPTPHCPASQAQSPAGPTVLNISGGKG
Protocol: Since DBH is a major enzyme in the synthetic pathway of norepinephrine (NE), the presence of a DBH inhibitor would act to decrease the amount of NE produced, and thereby have an antihypertensive effect. The DBH inhibitory properties of the compounds of this invention can readily be determined by standard and well-known procedures. […] The test compound is added at the desired concentration, and the system is incubated. Aliquots are taken at different time intervals and DBH activity is measured using tyramine as the substrate. The reaction is followed by measuring oxygen uptake using a polarographic electrode and an oxygen monitor by the method of S. May, et al., J. Biol. Chem., 256, 2258 (1981).

[2] = tested on: spontaneously hypertensive rats; assay: Antihypertensive activity in vivo: continuous recording of arterial blood pressure in conscious spontaneously hypertensive rats; settings: ip
Protocol: For instance, test compounds are administered intraperitoneally (ip) to unanesthetized, spontaneously hypertensive rats and the arterial blood pressure is monitored continuously.

[3] = biological target: T1, dopamine-β-hydroxylase (DBH); assay: DBH inhibition kinetics: conversion of tyramine to octopamine, HPLC with fluorometric quantitation; type: biochemical; settings: read-out: inhibition constant (ki)
From the text: The DBH inhibitory properties of the compounds of this invention can also readily be determined […] by standard and well known procedures for assaying the conversion of tyramine to octopamine in the presence of DBH, such as the procedure set forth by Feilchenfeld, N. B., Richter, H. W. and Waddell, W. H. in "Time-Resolved Assay of Dopamine Beta Hydroxylase Activity Utilizing High-Pressure Liquid Chromatography", Analyt. Biochem., 122, 124-128 (1982). Determination of the kinetics of DBH inhibition is exemplified by a procedure where the enzyme-assisted conversion of tyramine to octopamine is determined by incubating varying concentrations of test compound with constant concentrations of substrate, enzyme (DBH), molecular oxygen, an electron donor such as ascorbate and the necessary cofactors for the enzyme at optimal temperature and pH. After incubation, the product is separated out by high-performance liquid chromatography and quantitated fluorometrically, from which an inhibition constant (ki) can readily be calculated.

NCC=C1SCCS1 [compound 1]
activity in the time-dependent DBH assay [1]: most active compound of the compounds tested

NC/C=C1/CCCS1 [Example 6]
in vivo antihypertensive activity [2]: active as an in vivo antihypertensive agent

1,3-Dithiolane-2-ethanamine [Example 2]
Ki [3]: 11 µM
